The values that follow come from publication PMC10885983 (Antibiotics, 2024).

In brackets after ≈: the same amount, converted by molar mass.

Data set [1] concerns Streptococcus mutans. The arrangement: method as in PMID 19303274. As to conditions: cited from earlier work.
Data set [2] can be described thus: Long-term storage stability in plasma at −80 °C. In kind it is in vitro ADME, rat. The following applies: after 15, 30, 60 and 90 d. The procedure: The mean recovery was determined at low, medium and high concentrations from five replicates. The long-term storage stability at −80 °C was determined after 15, 30, 60 and 90 d. Bench-top stability testing was also conducted. Samples were spiked in blank plasma and extracted, then analyzed in three replications at 25 °C for 0, 1, 2, 4, 6 and 8 h. The freeze–thaw cycles were stabilized. Rhodomyrtone was spiked in blank plasma, then stored in a freezer (−20 °C) and thawed every 24 h at room temperature (25 °C) for three cycles prior to extraction.

The nature of data set [3]: Bench-top stability in plasma at 25 °C. In kind it is in vitro ADME, rat. As to conditions: for Bench-top stability, Accuracy (%): n = 5. As to the method: The mean recovery was determined at low, medium and high concentrations from five replicates. The long-term storage stability at −80 °C was determined after 15, 30, 60 and 90 d. Bench-top stability testing was also conducted. […] The freeze–thaw cycles were stabilized. Rhodomyrtone was spiked in blank plasma, then stored in a freezer (−20 °C) and thawed every 24 h at room temperature (25 °C) for three cycles prior to extraction.

What is called MIC is the least concentration at which growth counts as inhibited. As for `CC(C)CC(=O)c1c(O)cc2c(c1O)[C@@H](CC(C)C)C1=C(O2)C(C)(C)C(=O)C(C)(C)C1=O` [rhodomyrtone, Rhodomyrtone], in data set [1], the MIC is 0.19 µg/mL (≈ 0.429 µM). The “Long-term stability, accuracy” value in data set [2] was 94–114%. Also, the “Bench-top stability, Accuracy (%)” value in data set [3] (0 h, 0.1 µg/mL) is 108.10%; in data set [3] (0 h, 100 µg/mL) it was 97.34%; in data set [3] (1 h, 0.1 µg/mL), 93.38%; in data set [3] (1 h, 100 µg/mL) it was 96.58%; in data set [3] (2 h, 0.1 µg/mL) it was 108.61%; in data set [3] (2 h, 100 µg/mL), 95.97%. For the same compound, the “Bench-top stability, Accuracy (%)” value in data set [3] (4 h, 0.1 µg/mL) came out at 101.47%; in data set [3] (4 h, 100 µg/mL), 94.58%; in data set [3] (6 h, 0.1 µg/mL), 101.24%; in data set [3] (8 h, 0.1 µg/mL), 95.96%. In addition, the “Bench-top stability, accuracy (range over all time points)” value in data set [3] (0 to 8 h, 0.1 and 100 µg/mL) was 92–109%.
